Laboratory results taken from ChEMBL document CHEMBL4665893, “Scalable Synthesis, In Vitro cccDNA Reduction, and In Vivo Antihepatitis B Virus Activity of a Phosphonomethoxydeoxythreosyl Adenine Prodrug” (J Med Chem, 2020).

Experiment: Plasma concentration in C57BL/6 mouse at 6 mg/kg, po administered as single dose after 0.25 to 24 hrs by LC/MS/MS analysis
Assay type: ADME, organism-based
Settings: in vivo, time 0.25-24 hrs

A Cp of under 1.01 ng/mL was found for `Nc1ncnc2c1ncn2[C@H]1C[C@@H](OCP(=O)(O)O)CO1` in this work.
